Test results: PubChem BioAssay AID276 (DTP/NCI, 2004)
Where “and” joins values, the source holds several entries; their conditions need not be identical. Identical values can stand only once. Inconclusive results and toxic doses are left out. Rule for the calls: active = survival T/C of 150% or more; inactive = T/C below 125% in these data.

Tested on: B6C3F1 mice, Lewis lung carcinoma iv, survival T/C
Assay: NCI In Vivo Anticancer Drug Screen. Data for tumor model Lewis Lung Carcinoma (intravenous) in B6C3F1 mice
Settings: endpoint: median survival time, schedule: Q01DX009 (ip), higher = longer survival
Summary of the method: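 Transplantable tumor in mice; compound treated vs vehicle controls; read-out survival; value = treated/control (T/C).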

[1] = dose: 0.25 mg/kg/injection, vehicle: saline
[2] = dose: 0.5 mg/kg/injection, vehicle: saline
[3] = dose: 1.0 mg/kg/injection, vehicle: saline
[4] = dose: 12.5 mg/kg/injection, vehicle: saline
[5] = dose: 25.0 mg/kg/injection, vehicle: saline
[6] = dose: 50.0 mg/kg/injection, vehicle: saline
[7] = dose: 100.0 mg/kg/injection, vehicle: saline
[8] = dose: 200.0 mg/kg/injection, vehicle: saline
[9] = dose: 400.0 mg/kg/injection, vehicle: saline
[10] = dose: 3.12 mg/kg/injection, vehicle: saline with Tween-80
[11] = dose: 6.25 mg/kg/injection, vehicle: saline with Tween-80
[12] = dose: 12.5 mg/kg/injection, vehicle: saline with Tween-80
[13] = dose: 25.0 mg/kg/injection, vehicle: saline with Tween-80
[14] = dose: 50.0 mg/kg/injection, vehicle: saline with Tween-80
[15] = dose: 100.0 mg/kg/injection, vehicle: saline with Tween-80
[16] = dose: 200.0 mg/kg/injection, vehicle: saline with Tween-80
[17] = dose: 400.0 mg/kg/injection, vehicle: saline with Tween-80
[18] = dose: 6.25 mg/kg/injection, vehicle: water
[19] = dose: 12.5 mg/kg/injection, vehicle: water

Measured: T/C

C/C(=N\N=C(/[Se])N1CC2CCC(CC2)C1)c1ccccn1
inactive: dose: 1.5 mg/kg/injection, vehicle: Klucel (hydroxypropylcellulose) (HPC) 106 % of control | dose: 3.0 mg/kg/injection, vehicle: Klucel (hydroxypropylcellulose) (HPC) 103 % of control | dose: 6.25 mg/kg/injection, vehicle: Klucel (hydroxypropylcellulose) (HPC) 110 % of control

CNC(=O)O/N=C(\CN=[N+]=[N-])C(C)(C)C
inactive: dose: 0.13 mg/kg/injection, vehicle: saline 102 % of control | [1] 102 % of control | [2] 106 % of control | [3] 105 % of control

CC1=C(C)C(=O)O[C@@H]([C@](C)(O)[C@]2(O)CC[C@@]3(O)[C@@H]4C[C@H]5O[C@]56[C@@H](O)C=CC(=O)[C@]6(C)[C@H]4CC[C@]23C)C1
inactive: [3] 97 % of control | dose: 2.0 mg/kg/injection, vehicle: saline 100 % of control and 101 % of control | dose: 4.0 mg/kg/injection, vehicle: saline 101 % of control and 104 % of control | dose: 8.0 mg/kg/injection, vehicle: saline 94 % of control and 101 % of control | dose: 16.0 mg/kg/injection, vehicle: saline 94 % of control | dose: 32.0 mg/kg/injection, vehicle: saline 92 % of control

OCCN1CCN(CC/C=C2/c3ccccc3Sc3ccc(Cl)cc32)CC1
inactive: dose: 1.56 mg/kg/injection, vehicle: saline 99 % of control | dose: 3.12 mg/kg/injection, vehicle: saline 103 % of control | dose: 6.25 mg/kg/injection, vehicle: saline 98 % of control | [4] 103 % of control | [5] 110 % of control

C=CCc1cn(C2CC(O)C(CO)O2)c(=O)[nH]c1=O (configuration not stated)
inactive: [4] 100 % of control | [5] 88 % of control | [6] 87 % of control | [7] 100 % of control | [8] 96 % of control | [9] 98 % of control

Nc1cc2c3c(cccc3c1)C(=O)N(CCN1CCCC1)C2=O
inactive: [10] 105 % of control | [11] 105 % of control | [12] 105 % of control | [13] 109 % of control

O=c1[nH]cnc2[nH]ncc12
inactive: dose: 12.5 mg/kg/injection, vehicle: suspension in saline 95 % of control | dose: 25.0 mg/kg/injection, vehicle: suspension in saline 105 % of control | dose: 50.0 mg/kg/injection, vehicle: suspension in saline 95 % of control | dose: 100.0 mg/kg/injection, vehicle: suspension in saline 106 % of control | dose: 200.0 mg/kg/injection, vehicle: suspension in saline 112 % of control | dose: 400.0 mg/kg/injection, vehicle: suspension in saline 120 % of control

Cc1cc(NCCCCCCNc2cc(C)nc3cc(N(C)C)ccc23)c2ccc(N(C)C)cc2n1
inactive: dose: 3.12 mg/kg/injection, vehicle: distilled water + Tween-80 + alcohol 98 % of control | dose: 6.25 mg/kg/injection, vehicle: distilled water + Tween-80 + alcohol 100 % of control | dose: 12.5 mg/kg/injection, vehicle: distilled water + Tween-80 + alcohol 93 % of control | dose: 25.0 mg/kg/injection, vehicle: distilled water + Tween-80 + alcohol 102 % of control

CC1=CC(=Nc2ccc(N(CCCl)CCCl)cc2)C=C(C)C1=O
inactive: [12] 109 % of control | [13] 116 % of control

CC(=O)OC1(C)CC(C)C(=O)C(C(O)CC2CC(=O)NC(=O)C2)C1 (configuration not stated)
inactive: dose: 15.6 micrograms/kg/injection, vehicle: saline 96 % of control | dose: 31.3 micrograms/kg/injection, vehicle: saline 95 % of control | dose: 62.5 micrograms/kg/injection, vehicle: saline 100 % of control | dose: 125.0 micrograms/kg/injection, vehicle: saline 100 % of control | dose: 250.0 micrograms/kg/injection, vehicle: saline 107 % of control

CO[C@@]12[C@H](COC(N)=O)C3=C(C(=O)C(C)=C(N)C3=O)N1C[C@@H]1N[C@@H]12
inactive: dose: 0.12 mg/kg/injection, vehicle: saline 101 % of control | [1] 103 % of control and 109 % of control | [2] 118 % of control | [3] 107 % of control

CN=S(=O)(OCCCCCOS(=O)(=NC)c1ccccc1)c1ccccc1 (configuration not stated)
inactive: [10] 101 % of control | [11] 105 % of control | [12] 118 % of control | [13] 108 % of control | [14] 122 % of control

Nc1nc(N)c2cc(S(=O)(=O)c3ccccc3)ccc2n1
inactive: [13] 98 % of control | [14] 98 % of control | [15] 99 % of control

BrC1CC(Br)c2c1c1c(c3c2C(Br)CC3Br)C(Br)CC1Br (configuration not stated)
inactive: [12] 99 % of control | [13] 103 % of control | [14] 92 % of control | [16] 121 % of control | [17] 112 % of control

Nc1nc(-c2ccccc2)c(Br)c(=O)[nH]1
inactive: [13] 114 % of control | [14] 107 % of control | [15] 110 % of control | [16] 92 % of control and 121 % of control | [17] 100 % of control and 118 % of control | dose: 800.0 mg/kg/injection, vehicle: saline with Tween-80 100 % of control

COC1/C=C/O[C@@]2(C)Oc3c(C)c(O)c4c(O)c(cc(O)c4c3C2=O)NC(=O)/C(C)=C\C=C\[C@H](C)C(O)[C@@H](C)[C@@H](O)[C@@H](C)[C@H](OC(C)=O)[C@@H]1C (some centres not stated)
inactive: [12] 109 % of control | [13] 106 % of control | [14] 105 % of control | [15] 101 % of control | [16] 101 % of control | [17] 100 % of control

O=[N+]([O-])c1nccn1CC(O)CO (configuration not stated)
inactive: [4] 100 % of control | [5] 105 % of control | [6] 104 % of control | [7] 102 % of control | [8] 106 % of control | [9] 107 % of control

CC1C=NNC1=O (configuration not stated)
inactive: dose: 50.0 mg/kg/injection, vehicle: Klucel (hydroxypropylcellulose) (HPC) 103 % of control | dose: 100.0 mg/kg/injection, vehicle: Klucel (hydroxypropylcellulose) (HPC) 103 % of control | dose: 200.0 mg/kg/injection, vehicle: Klucel (hydroxypropylcellulose) (HPC) 113 % of control | dose: 400.0 mg/kg/injection, vehicle: Klucel (hydroxypropylcellulose) (HPC) 121 % of control | dose: 800.0 mg/kg/injection, vehicle: Klucel (hydroxypropylcellulose) (HPC) 118 % of control

N=c1ccc2nc3ccc(N)cc3sc-2c1
inactive: [18] 113 % of control | [19] 117 % of control | dose: 25.0 mg/kg/injection, vehicle: water 93 % of control

C[C@]12CC[C@H](O)CC1=CC[C@@H]1[C@@H]2CC[C@]2(C)C(=O)CC[C@@H]12
inactive: [13] 105 % of control | [14] 100 % of control | [15] 101 % of control | [16] 94 % of control | [17] 99 % of control

N#C[C@H](OC1OC(COC2OC(CO)C(O)C(O)C2O)C(O)C(O)C1O)c1ccccc1 (some centres not stated)
inactive: [5] 111 % of control | [6] 95 % of control | [7] 95 % of control | [8] 92 % of control | [9] 97 % of control | dose: 800.0 mg/kg/injection, vehicle: saline 101 % of control

CCCN1COC(OCC)C(C)(C)C1 (configuration not stated)
inactive: [12] 103 % of control and 111 % of control | [13] 93 % of control and 99 % of control | [14] 106 % of control and 112 % of control | [15] 100 % of control and 101 % of control

COc1cccc2c1C(=O)c1c(O)c3c(c(O)c1C2=O)C[C@@](O)(/C(C)=N\O)C[C@@H]3OC1CC(N)C(O)C(C)O1 (some centres not stated)
inactive: dose: 3.12 mg/kg/injection, vehicle: water 90 % of control | [18] 86 % of control | [19] 90 % of control

CN=S(=O)(OCCCCCOS(=O)(=NC)c1ccc(C)cc1)c1ccc(C)cc1 (configuration not stated)
inactive: [11] 99 % of control | [12] 99 % of control | [13] 91 % of control | [14] 94 % of control | [15] 92 % of control | [16] 96 % of control
